How the values were obtained:
[1] = Metal chelating activity assessed as compound-Fe2+ complex formation by measuring chelated ferrous ion at 0.18 umol/ml preincubated with Mohr's salt followed by ferozine addition and measured after 10 mins
HeLa = assay: Antiproliferative activity against human HeLa cells assessed as growth inhibition after 72 hrs by MTT assay; assay type: functional
MDA-MB-231 = assay: Antiproliferative activity against human MDA-MB-231 cells assessed as growth inhibition after 72 hrs by MTT assay; assay type: functional; conditions: MDA-MB-231, 72 h
Daoy = assay: Antiproliferative activity against human DaOY cells assessed as growth inhibition after 72 hrs by MTT assay; assay type: functional
[2] = Antioxidant activity assessed as DPPH radical scavenging activity at 0.18 umol/ml incubated for 30 mins under dark condition relative to control; assay type: functional
[3] = Antioxidant activity against linoleic acid assessed as inhibition of beta-carotene bleaching at 0.18 umol/ml measured at 15 mins interval for 1 hr; assay type: functional

Row | Structure (SMILES) | Activity [1] [%] | GI50 (HeLa) [nM] | GI50 (MDA-MB-231) [nM] | GI50 (Daoy) [nM] | inhibition [2] [%] | inhibition [3] [%]
1 | O=c1c(O)c(-c2ccc(O)c(O)c2)oc2cc(O)cc(O)c12 | 22 |  |  |  |  | 
2 | COc1cccc2c1C(=O)c1c(O)c3c(c(O)c1C2=O)C[C@@](O)(C(=O)CO)C[C@@H]3O[C@H]1C[C@H](N)[C@H](O)[C@H](C)O1 [DOXORUBICIN] |  | 93 | 46 | 16 |  | 
3 | C=C(CC[C@@H](C)[C@H]1CC[C@@]2(C)[C@@H]3CC[C@H]4C(C)(C)[C@@H](OC(=O)[C@H](CSSC[C@H](NC(=O)OC(C)(C)C)C(=O)O[C@H]5CC[C@]67C[C@@]68CC[C@]6(C)[C@@H]([C@H](C)CCC(=C)C(C)C)CC[C@@]6(C)[C@@H]8CC[C@H]7C5(C)C)NC(=O)OC(C)(C)C)CC[C@@]45C[C@]35CC[C@]12C)C(C)C | 0 | > 10000 | > 10000 | > 10000 | 0 | 5
